Results: patent US9617330B2, “Chemorepulsion of cells” (Celtaxsys, Inc., priority 2006, dated 2017)

Columns and labels:
Monocyte = experiment: Trans-well migration assay (Example 1), net migratory response; conditions: Monocyte; net observed response
[1] = tested on: Eo-HL60 (HL-60 clone 15 differentiated to eosinophil-like phenotype); experiment: as above; type: cell-based, human; conditions: net observed response
[2] = tested on: Human primary CD4+ lymphocytes; experiment: Trans-well migration assay (Example 3 method), unimodal fugetaxin test; type: cell-based; parameters: key: A “+” in the Table indicates a positive hit as a unimodal fugetaxin, as that term is defined herein, for that particular cell type; conditions: methods of Example 3
[3] = tested on: Human primary neutrophils; experiment: as above; type: cell-based; parameters: key to Unimodal fugetaxin hit, Neutrophils: A “+” in the Table indicates a positive hit as a unimodal fugetaxin, as that term is defined herein, for that particular cell type; conditions: for Unimodal fugetaxin hit, Neutrophils: human neutrophils, methods of Example 3
Monocytes = experiment: High throughput transmigration assay (Example 9), chemorepulsion; type: cell-based, human; conditions: mean of three donors at concentration of highest activity, range 0.00125-1.25 μM
Text: (§1) An agent's repellent index is the ratio of chemorepulsion (CR) to spontaneous migration (SM) induced by the agent, i.e., [(CR)/(SM)]. […] For example, in calculating a RI for an agent, migratory responses including chemorepulsion (CR) and spontaneous migration (SM) may be measured over several decades or log scales of concentration. If, over any two consecutive measurements at concentrations which differ by at least 10 fold, the ratio of CR to SM at each of the two contiguous measurements is equal to or greater than 1.2, then the agent is considered a validated chemorepellent.
(§2) For primary human T cells, up to 80 ml of blood is drawn from a human donor in sodium heparin Vacutainer tubes (Becton-Dickinson). The blood (between 10 and 15 ml per tube) is then layered onto 30 ml of Lymphocyte Separation Medium (LSM) (Cellgro, Herndon, Va.) in a 50 ml conical centrifuge tube and centrifuged for 20 minutes at 2440×g in a swinging bucket rotor. After removing the majority of the plasma from the top of each tube, the peripheral blood mononucleocyte (PBMC) layer is removed and transferred to fresh 50 ml conical centrifuge tubes. The tubes are then filled to 50 ml with IMDM and centrifuged for 10 minutes at 500×g. All but approximately 5 ml of the supernatant is then removed and the pellet resuspended with 25 ml IMDM and the centrifugation repeated. After removal of the supernatant, the cells are resuspended and combined to one 50 ml tube (per subject) and brought to a total volume of 50 ml. The cells are then counted using a hemacytometer (Reichert). After centrifugation under the same conditions, the supernatant is removed and the cells processed using the appropriate Miltenyi Biotec (Auburn, Calif.) negative selection kit to enrich for the desired cell type according to manufacturers instructions. The resulting purified cells are then diluted to 50 ml with IMDM. After centrifugation at 500×g for 10 minutes, the supernatant is removed and the cells resuspended in 15 ml IMDM supplemented with 0.5% heat inactivated fetal calf serum (FCS) (ATCC, Manassas, Va.). After another centrifugation for 10 minutes at 500×g, the supernatant is again removed and the cells resuspended in 7 ml 0.5% FCS in IMDM (assay medium) and transferred to a 15 ml conical centrifuge tube. The cells are then quantitated using a hemacytometer. When enriching for monocytes, the concentration of cells is adjusted to 2×10^7 per ml by centrifugation and removal of the appropriate volume of assay medium. For all other cell types, the tube cap is replaced with one from a 25 cm^2 tissue culture flask (Corning) and the cells stored overnight in a humidified 37° C. incubator with 5% CO2. The concentration of the cells is adjusted as for monocytes just prior to transmigration assay of Example 9.
It is noted that this procedure may be used to isolate and/or purify monocytes. In the monocyte purification method, a further step is included for platelet removal via the use of CD61 microbeads also purchased from Miltenyi Biotec (Auburn, Calif.).
(§3) Migration away from a chemical or biological agent (chemorepulsion (CR)) was measured using ChemoTx plates (Neuroprobe). These plates contain a planar polycarbonate or polyester membrane that has been etched and perforated so that cells can move along the etched tracks and fall through perforation holes, enabling the cells to be collected and the number of migrated cells quantified (FIGS. 5-6). Several dilutions (normally 4 in 10-fold increments) are prepared of the agent of interest. For neutrophils, plates with 3 μm pore membranes are used, while for all other primary cell types, 5 μm pore membranes are used. Membranes may, or may not, be coated with polyvinylpyrrolidine (PVP) as a wetting agent.
For spontaneous migration controls and chemorepulsion (CR) assays, 31 μl of assay medium is pipetted into the lower well of the transmigration apparatus (FIGS. 5-6). […]

B cells = experiment: as above; type: cell-based, human; parameters: key: ratio of chemorepulsion (CR) to spontaneous migration (SM), CR/SM
Text: as §1, §2, §3
(§4) For spontaneous migration controls and chemorepulsion (CR) assays, 31 μl of assay medium is pipetted into the lower well of the transmigration apparatus (FIGS. 5-6). For spontaneous migration controls and chemoattraction (CA) assays, 29 μl of assay medium is pipetted into upper chamber of the transmigration apparatus (FIG. 5). For CR, the upper well assay medium contains the agent or candidate chemorepellent. […]

Neutrophils = experiment: as above; type: cell-based, human; conditions: Neutrophils, mean of three donors at concentration of highest activity
CD8+ = experiment: as above; type: cell-based, human; conditions: mean of three donors at concentration of highest activity
Text: as §1, §2, §3, §4

[4] = mean of three donors at concentration of highest activity, range 0.00125-1.25 μM

Molecule: CC(C)Cn1cnc2c(N)nc3ccccc3c21 [Imiquimod, reference compound]
- Migratory Response (Monocyte): chemorepulsion
- Migratory Response [1]: chemorepulsion
- Unimodal fugetaxin hit, CD4+ [2]: +
- Unimodal fugetaxin hit, Neutrophils [3]: +

Molecule: CCL7: chemokine
- Repellent Index (Monocytes): 2.3

Molecule: CCL11: chemokine
- Repellent Index (B cells; [4]): 2.1

Molecule: CCL13: chemokine
- Repellent Index (Monocytes): 2.6

Molecule: CXCL1: chemokine
- Repellent Index (Neutrophils; range 0.00125-1.25 μM): 2.6
- Repellent Index (B cells; [4]): 1.3

Molecule: HSP27: heat shock protein; accession G01523/AAA62175
- Migratory Response (Monocyte): chemorepulsion
- Repellent Index (Neutrophils; range 0.00125-1.25 μM): 4.4
- Migratory Response [1]: chemorepulsion
- Unimodal fugetaxin hit, Neutrophils [3]: +

Molecule: HSP60: heat shock protein
- Migratory Response [1]: chemorepulsion
- Unimodal fugetaxin hit, CD4+ [2]: +
- Unimodal fugetaxin hit, Neutrophils [3]: +

Molecule: HSP90: heat shock protein; accession NP_005339.2 and others
- Repellent Index (Neutrophils; range 0.00125-1.25 μM): 1.7
- Migratory Response [1]: chemorepulsion
- Unimodal fugetaxin hit, CD4+ [2]: +
- Unimodal fugetaxin hit, Neutrophils [3]: +

Molecule: IL8: interleukin-8
- chemotactic (chemoattractant) versus fugetactic (chemorepellent) response of neutrophils ([3]; neutrophils, 1 hour, FIGS. 3 and 4, at 10 uM where stated): over twice as chemotactic (chemoattractant) as fugetactic (chemorepellent)

B1: Semaphorin 3F: semaphorin (protein, UniProt Q13275 19-785, looked up)
Semaphorin-3F: SFPTQDHLPATPRVRLSFKELKATGTAHFFNFLLNTTDYRILLKDEDHDRMYVGSKDYVLSLDLHDINREPLIIHWAASPQRIEECVLSGKDVNGECGNFVRLIQPWNRTHLYVCGTGAYNPMCTYVNRGRRAQATPWTQTQAVRGRGSRATDGALRPMPTAPRQDYIFYLEPERLESGKGKCPYDPKLDTASALINEELYAGVYIDFMGTDAAIFRTLGKQTAMRTDQYNSRWLNDPSFIHAELIPDSAERNDDKLYFFFRERSAEAPQSPAVYARIGRICLNDDGGHCCLVNKWSTFLKARLVCSVPGEDGIETHFDELQDVFVQQTQDVRNPVIYAVFTSSGSVFRGSAVCVYSMADIRMVFNGPFAHKEGPNYQWMPFSGKMPYPRPGTCPGGTFTPSMKSTKDYPDEVINFMRSHPLMYQAVYPLQRRPLVVRTGAPYRLTTIAVDQVDAADGRYEVLFLGTDRGTVQKVIVLPKDDQELEELMLEEVEVFKDPAPVKTMTISSKRQQLYVASAVGVTHLSLHRCQAYGAACADCCLARDPYCAWDGQACSRYTASSKRRSRRQDVRHGNPIRQCRGFNSNANKNAVESVQYGVAGSAAFLECQPRSPQATVKWLFQRDPGDRRREIRAEDRFLRTEQGLLLRALQLSDRGLYSCTATENNFKHVVTRVQLHVLGRDAVHAALFPPLSMSAPPPPGAGPPTPPYQELAQLLAQPEVGLIHQYCQGYWRHVPPSPREAPGAPRSPEPQDQKKPRNRRHHPPDT
- Repellent Index (Neutrophils; range 0.01-10 μM): 1.8
- Repellent Index (CD8+; range 0.01-10 μM): 1.3

B2: HSP47 Human: heat shock protein; accession AAP35758 (protein, UniProt P50454 19-418, looked up)
Serpin H1: AEVKKPAAAAAPGTAEKLSPKAATLAERSAGLAFSLYQAMAKDQAVENILVSPVVVASSLGLVSLGGKATTASQAKAVLSAEQLRDEEVHAGLGELLRSLSNSTARNVTWKLGSRLYGPSSVSFADDFVRSSKQHYNCEHSKINFRDKRSALQSINEWAAQTTDGKLPEVTKDVERTDGALLVNAMFFKPHWDEKFHHKMVDNRGFMVTRSYTVGVMMMHRTGLYNYYDDEKEKLQIVEMPLAHKLSSLIILMPHHVEPLERLEKLLTKEQLKIWMGKMQKKAVAISLPKGVVEVTHDLQKHLAGLGLTEAIDKNKADLSRMSGKKDLYLASVFHATAFELDTDGNPFDQDIYGREELRSPKLFYADHPFIFLVRDTQSGSLLFIGRLVRPKGDKMRDEL
- Repellent Index (Neutrophils; range 0.00125-1.25 μM): 1.4
- Migratory Response [1]: chemorepulsion
- Repellent Index (CD8+; range 0.00125-1.25 μM): 1.4
- Repellent Index (B cells; [4]): 1.5

B3: Semaphorin 3A: semaphorin (protein, UniProt Q14563 21-771, looked up)
Semaphorin-3A: NYQNGKNNVPRLKLSYKEMLESNNVITFNGLANSSSYHTFLLDEERSRLYVGAKDHIFSFDLVNIKDFQKIVWPVSYTRRDECKWAGKDILKECANFIKVLKAYNQTHLYACGTGAFHPICTYIEIGHHPEDNIFKLENSHFENGRGKSPYDPKLLTASLLIDGELYSGTAADFMGRDFAIFRTLGHHHPIRTEQHDSRWLNDPKFISAHLISESDNPEDDKVYFFFRENAIDGEHSGKATHARIGQICKNDFGGHRSLVNKWTTFLKARLICSVPGPNGIDTHFDELQDVFLMNFKDPKNPVVYGVFTTSSNIFKGSAVCMYSMSDVRRVFLGPYAHRDGPNYQWVPYQGRVPYPRPGTCPSKTFGGFDSTKDLPDDVITFARSHPAMYNPVFPMNNRPIVIKTDVNYQFTQIVVDRVDAEDGQYDVMFIGTDVGTVLKVVSIPKETWYDLEEVLLEEMTVFREPTAISAMELSTKQQQLYIGSTAGVAQLPLHRCDIYGKACAECCLARDPYCAWDGSACSRYFPTAKRRTRRQDIRNGDPLTHCSDLHHDNHHGHSPEERIIYGVENSSTFLECSPKSQRALVYWQFQRRNEERKEEIRVDDHIIRTDQGLLLRSLQQKDSGNYLCHAVEHGFIQTLLKVTLEVIDTEHLEELLHKDDDGDGSKTKEMSNSMTPSQKVWYRDFMQLINHPNLNTMDEFCEQVWKRDRKQRRQRPGHTPGNSNKWKHLQENKKGRNRRTHEFERAPRSV
- Repellent Index (CD8+; range 0.01-10 μM): 1.3
- Repellent Index (B cells; 0.00125 μM, one donor, triplicate, ± SD): 1.87 ± 0.40
- Repellent Index (B cells; 0.0125 μM, one donor, triplicate, ± SD): 2.07 ± 0.52
- Repellent Index (B cells; 0.125 μM, one donor, triplicate, ± SD): 2.39 ± 0.71
- Repellent Index (B cells; 1.25 μM, one donor, triplicate, ± SD): 2.16 ± 0.28
- Repellent Index (B cells; mean of three donors at concentration of highest activity, range 0.01-10 μM): 1.6

B4: HSP25: heat shock protein; accession AAA37862 (protein, UniProt P14602 1-209, looked up)
Heat shock protein beta-1: MTERRVPFSLLRSPSWEPFRDWYPAHSRLFDQAFGVPRLPDEWSQWFSAAGWPGYVRPLPAATAEGPAAVTLAAPAFSRALNRQLSSGVSEIRQTADRWRVSLDVNHFAPEELTVKTKEGVVEITGKHEERQDEHGYISRCFTRKYTLPPGVDPTLVSSSLSPEGTLTVEAPLPKAVTQSAEITIPVTFEARAQIGGPEAGKSEQSGAK
- Repellent Index (Neutrophils; range 0.00125-1.25 μM): 11.9
- Repellent Index (CD8+; range 0.00125-1.25 μM): 1.3
- Unimodal fugetaxin hit, Neutrophils [3]: +

B5: CCL27: chemokine (protein, UniProt Q9Y4X3 25-112, looked up)
C-C motif chemokine 27: FLLPPSTACCTQLYRKPLSDKLLRKVIQVELQEADGDCHLQAFVLHLAQRSICIHPQNPSLSQWFEHQERKLHGTLPKLNFGMLRKMG
- Repellent Index (B cells; [4]): 1.4

B6: Galectin-2: carbohydrate binding protein (galectin), full-length, purchased; accession P05162 (protein, UniProt P05162 1-132, looked up)
chain: MTGELEVKNMDMKPGSTLKITGSIADGTDGFVINLGQGTDKLNLHFNPRFSESTIVCNSLDGSNWGQEQREDHLCFSPGSEVKFTVTFESDKFKVKLPDGHELTFPNRLGHSHLSYLSVRGGFNMSSFKLKE
modifications: full-length
- Migratory Response [1]: chemorepulsion
- Repellent Index (CD8+; range 0.00125-1.25 μM): 1.5
